Results: patent publication US8088412B2, “Intralymphatic chemotherapy drug carriers” (priority 2008, dated 2012)
Like-named read-outs stand apart in the source and are kept apart here. Marks after values point to notes of the source that are not given here.

Legend:
MDA-MB-468LN = experiment: Cell proliferation over 72 hrs, resazurin blue; format: cell-based, human
Protocol: Preceding proliferation studies, cells were trypsinized and seeded into 96-well plates (5,000 cells/well). […] After 4 hrs, well fluorescence was measured (λex 560 nm, λem 590 nm) using a fluorophotometer (SpectraMax Gemini; Molecular Devices, Sunnyvale, Calif.). IC50 was determined as the midpoint between saline (positive) and cell-free (negative) controls for each plate.

MCF7 = experiment: In vitro cell toxicity (DMEM, resazurin blue, 72 hrs); format: cell-based, human
Protocol: (§1) Cell lines were seeded into 96-well plates (5000 cells/well) in DMEM medium supplemented with 5% FBS and 1% penicillin/streptomycin.

MDA-MB-231 = experiment: as above; format: cell-based, human
Protocol: as §1

[1] = Tissue distribution after subcutaneous cisplatin or cisplatin-HA into right mammary fat pad; format: in vivo, Sprague-Dawley rats
Protocol: Animals were allowed to recover with access to food and water. […] Organs and tissues were washed with 0.9% saline and frozen (−80° C.) until analysis. Plasma was separated by centrifugation from whole blood and frozen (−80° C.).
In vitro release samples (n=3) and plasma samples (n=5) were diluted 200-fold and 10-fold, respectively, with 0.1% nitric acid for analysis. […] Lymph nodes were processed similarly using 10 mg of tissue. After digestion, samples were homogenized (Tissue Tearor, BioSpec Products Inc., Bartlesville, Okla.). All samples were centrifuged (17 000×g, 20 min), and the supernate used for analysis.
Analysis was performed on a Varian SpectrAA GTA-110 with graphite furnace and partition tubes. Samples (21 μL) were injected using the autosampler, followed by 19 μL of 0.1% nitric acid. […] The furnace program was as follows: ramp 25 to 80° C., hold 2 s, ramp to 120° C., hold 10 s, ramp to 1000° C., hold 5 s, ramp to 2700° C., hold 2 s, cool to 25° C. over 20 s. The graphite partition tube was cleaned every 40 samples by baking at 2800° C. for 7 s. Argon was used as the injection and carrier gas.

MDA-1986 cells = experiment: In vivo efficacy of HA-cisplatin, orthotopic HNSCC model; set-up: species or system Nu/Nu female athymic nude mice; details: intravenous, weekly dose of 3.3 mg/kg for 3 weeks; 3 mice
From the text: The in vivo efficacy of HA-cisplatin was studied. All treatment began once animal HNSCC tumors reached 100 mm3 volume. Treatment commenced for 3 weeks. All animals were given 5×10^5 MDA-1986 cells in the buccal mucosa of the left cheek (which is a novel orthotopic HNSCC model I developed this year) and tumors develop in 2-3 weeks.

MDA-MB-468LN tumor cells = experiment: Efficacy of HA-doxorubicin vs intravenous doxorubicin, breast tumor xenograft; format: in vivo, nude mice; details: 6 weeks post-implantation; in saline via the tail vein, doses at 3 and 5 weeks
Protocol: Nude nu/nu mice were implanted with 1×10^6 cells (MDA-MB-468LN human breast cancer cells) into the mammary fatpad, after approximately 4 weeks a 100-200 mm^3 tumor had developed in the axillary lymph node package. Animals were randomly divided into four treatment groups of five animals each: intravenous saline, s.q. HA, intravenous cisplatin, or s.q. HA-cisplatin. At this point, doses were administered to the animals. In the HA-cisplatin and the HA groups, HA-cisplatin (3.3 mg/kg based on Pt-content) or HA (3.3 mg/kg) was dissolved in 100 mcL saline was injected subcutaneously peritumorally. […] In all study groups, a second dose was administered after 1 week. Tumor volumes were measured weekly using calipers and the formula: Volume=0.52×(width^2*length). Animals were euthanized when the tumor volume exceeded […] or the body score index fell below 2.
To evaluate the efficacy of HA-doxorubicin conjugates injected subcutaneously in the […] compared with intravenous doxorubicin, the following experiment was performed. MDA-MB-468LN tumor cells into nude mice as described in [128] and divided into four groups of five animals each. After 3 weeks, HA-DOX was injected peritumorally at 3.3 mg/kg (DOX basis), DOX was injected in saline via the tail vein, HA was injected peritumorally, and saline was injected via the tail vein. […]

## N.N.[Cl][Pt][Cl] [Cisplatin, cis-diamminedichloroplatinum, reference compound]
MDA-MB-468LN; HA carriers on a Pt-basis equivalent to cisplatin
  IC50: 5 mg/L
MDA-MB-468LN; Pt-basis, read-out: IC50
  IC50: 17 µM
MCF7; MCF-7, cisplatin basis
  IC50: 7 mg/L
MCF7; MCF-7, read-out: IC50
  IC50: 23 µM
MDA-MB-231; cisplatin basis
  IC50: 4 mg/L
MDA-MB-231; cisplatin basis, listed as cisplatin
  IC50: 7 mg/L
MDA-MB-231; read-out: IC50
  IC50: 13 µM
[1]; Bladder, subcutaneous into right mammary fatpad of female rats
  AUC (0-96 hrs): 208.5 µg·h/g
[1]; Brain, subcutaneous into right mammary fatpad
  AUC (0-96 hrs): 442.5 µg·h/g
[1]; Heart, subcutaneous into right mammary fatpad
  AUC (0-96 hrs): 459.0 µg·h/g
[1]; Kidneys, subcutaneous into right mammary fatpad
  AUC (0-96 hrs): 650.9 µg·h/g
[1]; Left lymph node (LLN), subcutaneous into right mammary fatpad
  AUC (0-96 hrs): 349.5 µg·h/g
[1]; Liver, subcutaneous into right mammary fatpad
  AUC (0-96 hrs): 415.6 µg·h/g
[1]; Lungs, subcutaneous into right mammary fatpad
  AUC (0-96 hrs): 409.8 µg·h/g
[1]; Muscle, subcutaneous into right mammary fatpad
  AUC (0-96 hrs): 371.5 µg·h/g
[1]; Plasma, subcutaneous into right mammary fatpad
  AUC (0-96 hrs): 174.1 µg·h/g
[1]; Right lymph node (RLN), subcutaneous into right mammary fatpad, p < 0.05
  AUC (0-96 hrs): 446.0 ^† μg · hr/g
[1]; Spleen, subcutaneous into right mammary fatpad
  AUC (0-96 hrs): 349.1 µg·h/g
[1]; intravenous (as worded in legend of FIG. 10B)
  serum Cmax: over 4 micrograms/mL
MDA-1986 cells
  tumor growth delay: about 3 weeks

## COc1cccc2c1C(=O)c1c(O)c3c(c(O)c1C2=O)C[C@@](O)(C(=O)CO)C[C@@H]3O[C@H]1C[C@H](N)[C@H](O)[C@H](C)O1 [DOX, doxorubicin]
MDA-MB-468LN tumor cells
  tumor volume: greater than 300 mm^3
